One may read the IC50 as the concentration needed to halve the response being measured. A higher IC50 goes with a need for much substance.

For 22 compounds, IC50 results are on record in patent US10961231B2, “NTCP inhibitors” (National Institute of Biological Sciences, Beijing, priority 2018, dated 2021).

Structures are written as SMILES.

In the first experiment the target is T1, NTCP (Homo sapiens, UniProt Q14973).
T1 sequence (Q14973 1-349): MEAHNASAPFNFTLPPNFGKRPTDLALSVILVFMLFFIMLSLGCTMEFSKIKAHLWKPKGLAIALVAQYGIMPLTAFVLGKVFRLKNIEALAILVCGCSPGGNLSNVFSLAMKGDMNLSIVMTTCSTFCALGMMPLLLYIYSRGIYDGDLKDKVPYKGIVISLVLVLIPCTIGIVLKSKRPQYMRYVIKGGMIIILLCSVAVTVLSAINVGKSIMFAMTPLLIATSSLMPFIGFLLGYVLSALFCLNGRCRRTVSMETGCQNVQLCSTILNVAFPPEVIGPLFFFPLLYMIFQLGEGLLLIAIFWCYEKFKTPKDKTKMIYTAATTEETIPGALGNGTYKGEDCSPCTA
The experiment is described as follows: [3H]-TCA uptake assay (NTCP inhibition). The class given is cell-based. The settings on record: IC50, given as a range, marked * (asterisk not explained). An outline of the steps: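 PTH and HepG2-NTCP cells kept 24 h in PMM to induce NTCP, then exposed 2 h to test compounds or DMSO. Uptake of 1 μM [3H]-taurocholate in Na+ Ringer's buffer (145 mM Na) ran 15 min at 37° C. Cells washed, lysed in 1% Triton X-100, and radioactivity counted by liquid scintillation.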
As for `CCC1NC(=O)C(C2OC(Oc3cccc(NCc4ccccc4)c3)CC2C)N(C)C(=O)C(C(C)C)N(C)C(=O)C(CC(C)C)N(C)C(=O)C(CC(C)C)N(C)C(=O)C(C)NC(=O)C(C)NC(=O)C(CC(C)C)N(C)C(=O)C(C(C)C)NC(=O)C(CC(C)C)N(C)C(=O)CN(C)C1=O` (stereo not shown) [Compound 48A-o], the IC50 was in the range of 1000 to 100000 nM.
In turn, `CCC1NC(=O)C(C2OC(Oc3cccc(N(C)CC)c3)CC2C)N(C)C(=O)C(C(C)C)N(C)C(=O)C(CC(C)C)N(C)C(=O)C(CC(C)C)N(C)C(=O)C(C)NC(=O)C(C)NC(=O)C(CC(C)C)N(C)C(=O)C(C(C)C)NC(=O)C(CC(C)C)N(C)C(=O)CN(C)C1=O` (stereo not shown) [Compound 49A-o] gave an IC50 of 1000 to 100000 nM.
For the compound `CCCN(C)c1cccc(OC2CC(C)C(C3C(=O)NC(CC)C(=O)N(C)CC(=O)N(C)C(CC(C)C)C(=O)NC(C(C)C)C(=O)N(C)C(CC(C)C)C(=O)NC(C)C(=O)NC(C)C(=O)N(C)C(CC(C)C)C(=O)N(C)C(CC(C)C)C(=O)N(C)C(C(C)C)C(=O)N3C)O2)c1` (stereo not shown) [Compound 50A-o], the IC50 fell in the range of 1000 to 100000 nM.
The same measure, in the same setting: the same measure for `CCC1NC(=O)C(C2OC(Oc3ccc(N(C)C)cc3)CC2C)N(C)C(=O)C(C(C)C)N(C)C(=O)C(CC(C)C)N(C)C(=O)C(CC(C)C)N(C)C(=O)C(C)NC(=O)C(C)NC(=O)C(CC(C)C)N(C)C(=O)C(C(C)C)NC(=O)C(CC(C)C)N(C)C(=O)CN(C)C1=O` (stereo not shown) [Compound 51A-o]: 1000 to 100000 nM.
`CCC1NC(=O)C(C2OC(Oc3cccc(OCc4ccccn4)c3)CC2C)N(C)C(=O)C(C(C)C)N(C)C(=O)C(CC(C)C)N(C)C(=O)C(CC(C)C)N(C)C(=O)C(C)NC(=O)C(C)NC(=O)C(CC(C)C)N(C)C(=O)C(C(C)C)NC(=O)C(CC(C)C)N(C)C(=O)CN(C)C1=O` (stereo not shown) [Compound 52A-o] showed an IC50 of 1000 to 100000 nM.
Regarding `CCC1NC(=O)C(C2OC(Oc3cccc(OCc4cccnc4)c3)CC2C)N(C)C(=O)C(C(C)C)N(C)C(=O)C(CC(C)C)N(C)C(=O)C(CC(C)C)N(C)C(=O)C(C)NC(=O)C(C)NC(=O)C(CC(C)C)N(C)C(=O)C(C(C)C)NC(=O)C(CC(C)C)N(C)C(=O)CN(C)C1=O` (stereo not shown) [Compound 53A-o], 10000 nM corresponded to half-maximal inhibition (IC50).
As for `CCC1NC(=O)C(C2OC(Oc3cccc(OCc4ccncc4)c3)CC2C)N(C)C(=O)C(C(C)C)N(C)C(=O)C(CC(C)C)N(C)C(=O)C(CC(C)C)N(C)C(=O)C(C)NC(=O)C(C)NC(=O)C(CC(C)C)N(C)C(=O)C(C(C)C)NC(=O)C(CC(C)C)N(C)C(=O)CN(C)C1=O` (stereo not shown) [Compound 54A-o], the IC50 lay within 1000 to 100000 nM.
Same read-out and setting: the result for `CCC1NC(=O)C(C2OC(Oc3ccc(OCc4ccccc4)cc3)CC2C)N(C)C(=O)C(C(C)C)N(C)C(=O)C(CC(C)C)N(C)C(=O)C(CC(C)C)N(C)C(=O)C(C)NC(=O)C(C)NC(=O)C(CC(C)C)N(C)C(=O)C(C(C)C)NC(=O)C(CC(C)C)N(C)C(=O)CN(C)C1=O` (stereo not shown) [Compound 57A-o] reads 1000 to 100000 nM.
On to `CCC1NC(=O)C(C2OC(Oc3cc(Cl)cc(OC)c3)CC2C)N(C)C(=O)C(C(C)C)N(C)C(=O)C(CC(C)C)N(C)C(=O)C(CC(C)C)N(C)C(=O)C(C)NC(=O)C(C)NC(=O)C(CC(C)C)N(C)C(=O)C(C(C)C)NC(=O)C(CC(C)C)N(C)C(=O)CN(C)C1=O` (stereo not shown) [Compound 59A-o], for which the IC50 was 1000 to 100000 nM.

The same experiment, now with this note: given as a range, marked * (asterisk not explained).
The compound `CCC1NC(=O)C(C2OC(Oc3cc(OCCOC)cc(OCC4CCOCC4)c3)CC2C)N(C)C(=O)C(C(C)C)N(C)C(=O)C(CC(C)C)N(C)C(=O)C(CC(C)C)N(C)C(=O)C(C)NC(=O)C(C)NC(=O)C(CC(C)C)N(C)C(=O)C(C(C)C)NC(=O)C(CC(C)C)N(C)C(=O)CN(C)C1=O` (stereo not shown) [Compound 55-o] yielded an IC50 of 1000 to 100000 nM.
Regarding `CCC1NC(=O)C(C2OC(Sc3cc(OCCOC)cc(OCC4CCOCC4)c3)CC2C)N(C)C(=O)C(C(C)C)N(C)C(=O)C(CC(C)C)N(C)C(=O)C(CC(C)C)N(C)C(=O)C(C)NC(=O)C(C)NC(=O)C(CC(C)C)N(C)C(=O)C(C(C)C)NC(=O)C(CC(C)C)N(C)C(=O)CN(C)C1=O` (stereo not shown) [Compound 55], the IC50 lay in the range of 1000 to 100000 nM.
For the compound `CCC1NC(=O)C(C2OC(Oc3cc(OCCOC)cc(OCc4cccs4)c3)CC2C)N(C)C(=O)C(C(C)C)N(C)C(=O)C(CC(C)C)N(C)C(=O)C(CC(C)C)N(C)C(=O)C(C)NC(=O)C(C)NC(=O)C(CC(C)C)N(C)C(=O)C(C(C)C)NC(=O)C(CC(C)C)N(C)C(=O)CN(C)C1=O` (stereo not shown) [Compound 56-o], the IC50 lay in the range of 1000 to 100000 nM.
Take `CCC1NC(=O)C(C2OC(Sc3cc(OCCOC)cc(OCc4cccs4)c3)CC2C)N(C)C(=O)C(C(C)C)N(C)C(=O)C(CC(C)C)N(C)C(=O)C(CC(C)C)N(C)C(=O)C(C)NC(=O)C(C)NC(=O)C(CC(C)C)N(C)C(=O)C(C(C)C)NC(=O)C(CC(C)C)N(C)C(=O)CN(C)C1=O` (stereo not shown) [Compound 56]: the half-inhibitory concentration (IC50) lay in the range of 1000 to 100000 nM.
Compound `CCC1NC(=O)C(C2OC(Oc3cccc(OCc4ccc5ccc(=O)oc5c4)c3)CC2C)N(C)C(=O)C(C(C)C)N(C)C(=O)C(CC(C)C)N(C)C(=O)C(CC(C)C)N(C)C(=O)C(C)NC(=O)C(C)NC(=O)C(CC(C)C)N(C)C(=O)C(C(C)C)NC(=O)C(CC(C)C)N(C)C(=O)CN(C)C1=O` (stereo not shown) [Compound 58A-o] came in with an IC50 of 1000 to 100000 nM.

Staying with this experiment, now noted: given as a range; assay not given.
For `CCC1NC(=O)C(C2OC(Sc3cccc(N(C)CC)c3)CC2C)N(C)C(=O)C(C(C)C)N(C)C(=O)C(CC(C)C)N(C)C(=O)C(CC(C)C)N(C)C(=O)C(C)NC(=O)C(C)NC(=O)C(CC(C)C)N(C)C(=O)C(C(C)C)NC(=O)C(CC(C)C)N(C)C(=O)CN(C)C1=O` [Compound 49A, [2-((2R,3R)-5-(3-(ethyl(methyl)amino)phenylthio)-3-methyltetrahydrofuran-2-yl)-2-(methylamino)acetic acid]^1-cyclosporin A], the IC50 lay in the range of 1 to 1000 nM.
Compound `CCCN(C)c1cccc(SC2CC(C)C(C3C(=O)NC(CC)C(=O)N(C)CC(=O)N(C)C(CC(C)C)C(=O)NC(C(C)C)C(=O)N(C)C(CC(C)C)C(=O)NC(C)C(=O)NC(C)C(=O)N(C)C(CC(C)C)C(=O)N(C)C(CC(C)C)C(=O)N(C)C(C(C)C)C(=O)N3C)O2)c1` [Compound 50A, [2-((2R,3R)-3-methyl-5-(3-(methyl(propyl)amino)phenylthio)tetrahydrofuran-2-yl)-2-(methylamino)acetic acid]^1-cyclosporin A] showed an IC50 of 1 to 1000 nM.
The same measure, in the same setting: the result for `CCC1NC(=O)C(C2OC(Sc3cccc(OCc4ccccn4)c3)CC2C)N(C)C(=O)C(C(C)C)N(C)C(=O)C(CC(C)C)N(C)C(=O)C(CC(C)C)N(C)C(=O)C(C)NC(=O)C(C)NC(=O)C(CC(C)C)N(C)C(=O)C(C(C)C)NC(=O)C(CC(C)C)N(C)C(=O)CN(C)C1=O` [Compound 52A, [2-((2R,3R)-3-methyl-5-(3-(pyridin-2-ylmethoxy)phenylthio)tetrahydrofuran-2-yl)-2-(methylamino)acetic acid]^1-cyclosporin A] reads 1 to 1000 nM.
As for `CCC1NC(=O)C(C2OC(Sc3cccc(OCc4cccnc4)c3)CC2C)N(C)C(=O)C(C(C)C)N(C)C(=O)C(CC(C)C)N(C)C(=O)C(CC(C)C)N(C)C(=O)C(C)NC(=O)C(C)NC(=O)C(CC(C)C)N(C)C(=O)C(C(C)C)NC(=O)C(CC(C)C)N(C)C(=O)CN(C)C1=O` [Compound 53A, [2-((2R,3R)-3-methyl-5-(3-(pyridin-3-ylmethoxy)phenylthio)tetrahydrofuran-2-yl)-2-(methylamino)acetic acid]^1-cyclosporin A], the IC50 is 1 to 1000 nM.
`CCC1NC(=O)C(C2OC(Sc3cccc(OCc4ccncc4)c3)CC2C)N(C)C(=O)C(C(C)C)N(C)C(=O)C(CC(C)C)N(C)C(=O)C(CC(C)C)N(C)C(=O)C(C)NC(=O)C(C)NC(=O)C(CC(C)C)N(C)C(=O)C(C(C)C)NC(=O)C(CC(C)C)N(C)C(=O)CN(C)C1=O` [Compound 54A, [2-((2,3R)-3-methyl-5-(3-(pyridin-4-ylmethoxy)phenylthio)tetrahydrofuran-2-yl)-2-(methylamino)acetic acid]^1-cyclosporin A]: the IC50 was 1 to 1000 nM.
With `CCC1NC(=O)C(C2OC(Sc3ccc(OCc4ccccc4)cc3)CC2C)N(C)C(=O)C(C(C)C)N(C)C(=O)C(CC(C)C)N(C)C(=O)C(CC(C)C)N(C)C(=O)C(C)NC(=O)C(C)NC(=O)C(CC(C)C)N(C)C(=O)C(C(C)C)NC(=O)C(CC(C)C)N(C)C(=O)CN(C)C1=O` [Compound 57A, [2-((2R,3R)-5-(4-(benzyloxy)phenylthio)-3-methyltetrahydrofuran-2-yl)-2-(methylamino)acetic acid]^1-cyclosporin A], the IC50 is 1 to 1000 nM.
In turn, `CCC1NC(=O)C(C2OC(Sc3cccc(OCc4ccc5ccc(=O)oc5c4)c3)CC2C)N(C)C(=O)C(C(C)C)N(C)C(=O)C(CC(C)C)N(C)C(=O)C(CC(C)C)N(C)C(=O)C(C)NC(=O)C(C)NC(=O)C(CC(C)C)N(C)C(=O)C(C(C)C)NC(=O)C(CC(C)C)N(C)C(=O)CN(C)C1=O` [Compound 58A, [2-((2R,3R)-3-methyl-5-(3-((2-oxo-2H-chromen-7-yl)methoxy)phenylthio)tetrahydrofuran-2-yl)-2-(methylamino)acetic acid]^1-cyclosporin A] displayed an IC50 of 1 to 1000 nM.
Regarding `CCC1NC(=O)C(C2OC(Sc3cc(Cl)cc(OC)c3)CC2C)N(C)C(=O)C(C(C)C)N(C)C(=O)C(CC(C)C)N(C)C(=O)C(CC(C)C)N(C)C(=O)C(C)NC(=O)C(C)NC(=O)C(CC(C)C)N(C)C(=O)C(C(C)C)NC(=O)C(CC(C)C)N(C)C(=O)CN(C)C1=O` [Compound 59A, [2-((2R,3R)-5-(3-chloro-5-methoxyphenylthio)-3-methyltetrahydrofuran-2-yl)-2-(methylamino)acetic acid]^1-cyclosporin A], the half-inhibitory concentration (IC50) lay in the range of 1 to 1000 nM.
